From patent US20050026950A1, “Methods of therapeutic treatment using retinoids to achieve consistent bioavailability” (Allergan, Inc., priority 2003, published 2005)

What was measured:
[1] = Phase 3 studies of orally administered tazarotene for psoriasis, adverse event monitoring; type: in vivo, human; conditions: Taz 4.5 mg
Description: A series of Phase 3 studies are conducted on orally administered tazarotene for the treatment of psoriasis. Adverse events (side effects) are monitored. In addition, published data for acitretin's side effects are also considered.

severe nodulocystic acne = test: Multicenter double-blind placebo-controlled study of oral tazarotene in severe nodulocystic acne; type: in vivo, human; conditions: for patients withdrawing due to adverse events: treatment period
Description: A multicenter, double-blind, randomized, placebo-controlled parallel-group study is undertaken to determine the efficacy of orally administered tazarotene in treating severe nodulocystic acne.
In addition, washout periods for other medications for this study are: 1 week for vitamin A supplements >5000 IU; 2 weeks for topical anti-acne medications (e.g., retinoids, azelaic acid, benzoyl peroxide); 2 weeks for topical or systemic antibiotic therapy that may alter the course of acne; and 6 months for systemic retinoids.
Patients are randomized to receive placebo or oral tazarotene (0.75, 1.5, 3, or 6 mg), in a 1:1:1:1:1 ratio once daily for 24 weeks. After this, the patients are followed without treatment for an additional 12 weeks. Patients discontinuing from the treatment period due to adverse effects or lack of efficacy are eligible for entry into the post-treatment phase.
In the study, overall acne severity is rated as: none (no inflammatory acne lesions); mild (few to several papules or pustules, no nodulocystic lesions); moderate (several to many papules or pustules, few to several nodulocystic lesions); and severe (numerous or extensive papules or pustules, many, for example, at least about 5 or at least about 10, nodulocystic lesions).
Treatment success is defined as at least moderate (about 50%) improvement on the following 7-point global response scale: • 0=completely cleared • 1=almost cleared (about 90% improvement) • 2=marked response (about 75% improvement) • 3=moderate response (about 50% improvement) • 4=slight response (about 25% improvement) • 5=condition unchanged • 6=condition worsened
In this study, facial nodulocystic lesion count includes lesions greater than 5 mm in size. Facial papular/pustular lesion count includes lesions less than or equal to 5 mm in size. Facial non-inflammatory lesion count includes open and closed comedones.
Sebum output is assessed every 4 weeks at selected centers using the Sebutape® patches, sold by Cuderm Corporation. Urinalysis, chemistry, and hematology values are monitored. Bone formation and resorption assessments (serum bone alkaline phosphatase and serum amino terminal telopeptides, respectively) at selected centers are monitored.
Bone mineral density of spine and proximal femur at selected centers is monitored. Ligament calcification or osteophyte formation (lateral X-ray of the cervical and thoracic spine, and ankle calcaneous) is monitored. Epiphyseal growth plate closure (internal oblique X-ray of the ankle in patients less than or equal to 21 years old) is monitored.

[2] = Study 3, treated 3 months (N = 220)
[3] = Study 3, treated 6 months (N = 92)
[4] = combined data from Studies 1 and 2 (N = 348)
[5] = 0.75 to 6 mg once daily, 24 weeks

CCOC(=O)c1ccc(C#Cc2ccc3c(c2)C(C)(C)CCS3)nc1 [tazarotene]
Alopecia [1, 2]: 1 (0.5) number (%) of patients | Arthralgia [1, 2]: 28 (12.7) number (%) of patients | Atrophy of skin [1, 2]: 0 (0.0) number (%) of patients | Back pain [1, 2]: 7 (3.2) number (%) of patients | Cheilitis [1, 2]: 149 (67.7) number (%) of patients | Dry Skin [1, 2]: 47 (21.4) number (%) of patients | Dry mouth/Oral dryness [1, 2]: 11 (5.0) number (%) of patients | Epistaxis [1, 2]: 1 (0.5) number (%) of patients | Erythematous rash/Erythema [1, 2]: 0 (0.0) number (%) of patients | Hyperesthesia [1, 2]: 0 (0.0) number (%) of patients | Nail Disorder [1, 2]: 1 (0.5) number (%) of patients | Paresthesia [1, 2]: 3 (1.4) number (%) of patients | Paronychia/Nail disorder [1, 2]: 1 (0.5) number (%) of patients | Pruritus [1, 2]: 11 (5.0) number (%) of patients | Rhinitis [1, 2]: 0 (0.0) number (%) of patients | Rigors/Chills [1, 2]: 1 (0.5) number (%) of patients | Skin peeling/Desquamation [1, 2]: 3 (1.4) number (%) of patients | Sticky skin/Skin disorder [1, 2]: 0 (0.0) number (%) of patients | Xerophthalmia/Eye disorder [1, 2]: 3 (1.4) number (%) of patients | Alopecia [1, 3]: 5 (5.4) number (%) of patients | Arthralgia [1, 3]: 30 (32.6) number (%) of patients | Atrophy of skin [1, 3]: 0 (0.0) number (%) of patients | Back pain [1, 3]: 10 (10.9) number (%) of patients | Cheilitis [1, 3]: 65 (70.7) number (%) of patients | Dry Skin [1, 3]: 24 (26.1) number (%) of patients | Dry mouth/Oral dryness [1, 3]: 2 (2.2) number (%) of patients | Epistaxis [1, 3]: 0 (0.0) number (%) of patients | Erythematous rash/Erythema [1, 3]: 0 (0.0) number (%) of patients | Hyperesthesia [1, 3]: 0 (0.0) number (%) of patients | Nail Disorder [1, 3]: 1 (1.1) number (%) of patients | Paresthesia [1, 3]: 1 (1.1) number (%) of patients | Paronychia/Nail disorder [1, 3]: 1 (1.1) number (%) of patients | Pruritus [1, 3]: 3 (3.3) number (%) of patients | Rhinitis [1, 3]: 0 (0.0) number (%) of patients | Rigors/Chills [1, 3]: 1 (1.1) number (%) of patients | Skin peeling/Desquamation [1, 3]: 1 (1.1) number (%) of patients | Sticky skin/Skin disorder [1, 3]: 0 (0.0) number (%) of patients | Xerophthalmia/Eye disorder [1, 3]: 1 (1.1) number (%) of patients | Alopecia [1, 4]: 1 (0.3) number (%) of patients | Arthralgia [1, 4]: 60 (17.2) number (%) of patients | Atrophy of skin [1, 4]: 0 (0.0) number (%) of patients | Back pain [1, 4]: 16 (4.6) number (%) of patients | Cheilitis [1, 4]: 228 (65.5) number (%) of patients | Dry Skin [1, 4]: 82 (23.6) number (%) of patients | Dry mouth/Oral dryness [1, 4]: 11 (3.2) number (%) of patients | Epistaxis [1, 4]: 2 (0.6) number (%) of patients | Erythematous rash/Erythema [1, 4]: 2 (0.6) number (%) of patients | Hyperesthesia [1, 4]: 0 (0.0) number (%) of patients | Nail Disorder [1, 4]: 2 (0.6) number (%) of patients | Paresthesia [1, 4]: 7 (2.0) number (%) of patients | Paronychia/Nail disorder [1, 4]: 2 (0.6) number (%) of patients | Pruritus [1, 4]: 21 (6.0) number (%) of patients | Rhinitis [1, 4]: 8 (2.3) number (%) of patients | Rigors/Chills [1, 4]: 9 (2.6) number (%) of patients | Skin peeling/Desquamation [1, 4]: 3 (0.9) number (%) of patients | Sticky skin/Skin disorder [1, 4]: 1 (0.3) number (%) of patients | Xerophthalmia/Eye disorder [1, 4]: 8 (2.3) number (%) of patients | patients withdrawing due to adverse events (severe nodulocystic acne; 0.75 mg group (2/35)): 6% | patients withdrawing due to adverse events (severe nodulocystic acne; 1.5 mg group (0/37)): 0% | incidence of treatment success vs placebo (severe nodulocystic acne; 3 mg and 6 mg, week 24 and post-treatment phase, p≦0.05): significantly higher incidence of treatment success | patients withdrawing due to adverse events (severe nodulocystic acne; 3 mg group (2/37)): 5% | patients withdrawing due to adverse events (severe nodulocystic acne; 6 mg group (1/36)): 3% | reduction of overall acne severity vs placebo (severe nodulocystic acne; 6 mg, week 16 until end of post-treatment phase, p≦0.01): significantly more than placebo | bone formation and resorption (serum bone alkaline phosphatase, amino terminal telopeptides) (severe nodulocystic acne; [5]): do not appear to be altered | changes in urinalysis, chemistry, or hematology measures (liver function, triglycerides, total and HDL cholesterol) (severe nodulocystic acne; [5]): None of the treatment groups show any consistent clinically significant changes | ligament calcification, osteophyte formation, or changes in bone density (severe nodulocystic acne; [5]): None of the treatment groups show any clinically significant | percentage of patients with at least a 90% reduction in facial nodulocystic lesion count vs placebo (severe nodulocystic acne; 1.5, 3, and 6 mg groups, week 24): significantly greater | sebum secretion (Sebutape method) (severe nodulocystic acne; oral, 0.75 to 6 mg, vs placebo): does not substantially reduce sebum secretion relative to placebo | patients achieving treatment success (≧50% global improvement) (severe nodulocystic acne; three highest doses, by week 12): more than 70% | patients achieving treatment success (≧50% global improvement) (severe nodulocystic acne; two highest doses, by week 24): more than 86%
